For assay [1], the system named is C/EBPβ. Kind of assay: C/EBPβ activation (phosphorylation, nuclear translocation) by immunochemical method in treated cells. In kind it is cell-based. The following applies: for C/EBPβ activation: 30 μM, 24 hours, nuclear fractions or lysates, relative to oltipraz; for phosphorylation of 105Serine residue of C/EBPβ: after 3 hours from the culture; for p-C/EBPβ (105Serine) localisation, cytoplasmic to nuclear fractions: after 6 hours. Further details: key to C/EBPβ activation: O: same enzyme induction as oltipraz; OO: stronger enzyme induction than oltipraz. The protocol:
(§1) The present experimental example is to confirm C/EBPβ activation by using Compound 1 and Compound 2 which were prepared in the above Examples, and a degree of increase of Glutathione S-transferase A (GSTA), a representative gene which is induced by C/EBPβ activation. […] 0.7 mg/ml of MTT (yellow tetrazolium salt) was added thereto and further cultured for 4 hours. Since MTT is reduced to insoluble formazan crystal in survived cells, the produced crystal was dissolved with DMSO solvent, and the absorbance at 595 nm was measured. The cells were cultured with the newly prepared compounds except for the compounds which kill cells, i.e., Compound 1 and Compound 2 (each 30 μM), for 24 hours, and C/EBPβ activation and GSTA expression in nuclear fractions or lysates obtained from the treated cells were measured by immunochemical method.
When C/EBPβ gene is deleted in animals, regeneration of live tissue is impossible [Greenbaum et al., J Clin Invest. 1998; 102(5):996-1007]. C/EBPβ activation inhibits transforming growth factors (TGF-β) which is a mediating factor of hepatic fibrosis [Kang et al., FASEB J. 2002; 16(14):1988-90]. Therefore, C/EBPβ activation plays an important role in liver tissue regeneration and hepatic fibrosis inhibition. C/EBPβ activation process takes place by mediating phosphorylation of specific amino acid residue, i.e., ^105Serine residue of C/EBPβ [Buck et al., Mol. Cell. 1999; 4(6):1087-92]. Under this background art, it was observed whether or not direct increase of RSK1's activity by the compounds of the present invention induces phosphorylation of ^105Serine residue of C/EBPβ. […] In this experimental example, oltipraz was used as comparative example.

In assay [2] the test system is Glutathione S-transferase A (GSTA). Kind of assay: GSTA expression induced by C/EBPβ activation, immunochemical method. In kind it is cell-based. The following applies: 30 μM, 24 hours, nuclear fractions or lysates, relative to oltipraz. Further details: key: +: similar activation effects to oltipraz; ++: stronger activation effects than oltipraz. How it is done: as §1
When C/EBPβ gene is deleted in animals, regeneration of live tissue is impossible [Greenbaum et al., J Clin Invest. 1998; 102(5):996-1007]. C/EBPβ activation inhibits transforming growth factors (TGF-β) which is a mediating factor of hepatic fibrosis [Kang et al., FASEB J. 2002; 16(14):1988-90]. Therefore, C/EBPβ activation plays an important role in liver tissue regeneration and hepatic fibrosis inhibition. […]

For `S=c1ssc2c1CN(Cc1ccccc1)CC2` [Compound 1, 5-benzyl-4,5,6,7-tetrahydro-1,2-dithiolo[4,3-c]pyridine-3-thion], in assay [1], the “degree of phosphorylation of 188Threonine residue of C/EBPβ” value is recorded as “not changed at all”; the C/EBPβ activation result is “O”; the “phosphorylation of 105Serine residue of C/EBPβ” value is given as “increased”; the “p-C/EBPβ (105Serine) localisation, cytoplasmic to nuclear fractions” value is given as “moved into the nuclear fractions”. For the same compound, the GSTA induction entry in assay [2] is “++”.
The matching figures for `CCOC(=O)N1CCc2ssc(=S)c2C1` [Compound 2, 3-thioxo-6,7-dihydro-3H,4H-1,2-dithiolo[4,3-c]pyridine-5-carboxylic acid ethyl ester]: “not changed at all”, “O”, “increased”, “moved into the nuclear fractions” and “++”.

For the origin of these results see patent publication US20080058368A1, “4,5,6,7-Tetrahydro-[1,2]Dithiolo[4,3-C] Pyridine-3-Thione Compounds” (priority 2004, published 2008).
